Data taken from ChEMBL document CHEMBL1201862, “PubChem BioAssay data set” (2004).
Calls of active or inactive are those of the source.

Legend:
[1] = target: T1, Microphthalmia-associated transcription factor (Homo sapiens, UniProt O75030); assay: reducers of TRPM1 reporter luminescence, concentration series – cell-based, SK-MEL-5, cherry-picked, set 3, MITF inhibitor project, dose response (AID 493073); assay type: functional;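 also: SK-MEL-5 melanoma cells with luciferase driven by the MITF target TRPM1 promoter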
T1 sequence (O75030 whole entry): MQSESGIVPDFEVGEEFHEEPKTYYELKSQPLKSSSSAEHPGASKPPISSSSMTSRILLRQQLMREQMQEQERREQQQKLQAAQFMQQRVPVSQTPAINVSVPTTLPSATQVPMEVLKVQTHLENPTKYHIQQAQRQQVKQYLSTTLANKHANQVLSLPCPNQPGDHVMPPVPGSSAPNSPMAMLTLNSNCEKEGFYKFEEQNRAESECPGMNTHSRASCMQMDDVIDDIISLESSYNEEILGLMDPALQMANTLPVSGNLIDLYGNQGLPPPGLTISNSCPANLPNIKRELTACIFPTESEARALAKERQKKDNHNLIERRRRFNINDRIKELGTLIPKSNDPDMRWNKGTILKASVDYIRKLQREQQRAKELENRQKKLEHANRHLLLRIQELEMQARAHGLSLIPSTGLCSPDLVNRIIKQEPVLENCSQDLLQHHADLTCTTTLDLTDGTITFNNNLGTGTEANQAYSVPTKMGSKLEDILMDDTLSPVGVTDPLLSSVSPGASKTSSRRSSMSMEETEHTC

[2] = target: T2, DNA repair and recombination protein RAD54-like (Homo sapiens, UniProt Q92698); assay: RAD54 Holliday junction migration blockers – biochemical, fluorescence, cherry-picked samples, dose series, confirmation (AID 651657); assay type: functional
T2 sequence (Q92698 whole entry): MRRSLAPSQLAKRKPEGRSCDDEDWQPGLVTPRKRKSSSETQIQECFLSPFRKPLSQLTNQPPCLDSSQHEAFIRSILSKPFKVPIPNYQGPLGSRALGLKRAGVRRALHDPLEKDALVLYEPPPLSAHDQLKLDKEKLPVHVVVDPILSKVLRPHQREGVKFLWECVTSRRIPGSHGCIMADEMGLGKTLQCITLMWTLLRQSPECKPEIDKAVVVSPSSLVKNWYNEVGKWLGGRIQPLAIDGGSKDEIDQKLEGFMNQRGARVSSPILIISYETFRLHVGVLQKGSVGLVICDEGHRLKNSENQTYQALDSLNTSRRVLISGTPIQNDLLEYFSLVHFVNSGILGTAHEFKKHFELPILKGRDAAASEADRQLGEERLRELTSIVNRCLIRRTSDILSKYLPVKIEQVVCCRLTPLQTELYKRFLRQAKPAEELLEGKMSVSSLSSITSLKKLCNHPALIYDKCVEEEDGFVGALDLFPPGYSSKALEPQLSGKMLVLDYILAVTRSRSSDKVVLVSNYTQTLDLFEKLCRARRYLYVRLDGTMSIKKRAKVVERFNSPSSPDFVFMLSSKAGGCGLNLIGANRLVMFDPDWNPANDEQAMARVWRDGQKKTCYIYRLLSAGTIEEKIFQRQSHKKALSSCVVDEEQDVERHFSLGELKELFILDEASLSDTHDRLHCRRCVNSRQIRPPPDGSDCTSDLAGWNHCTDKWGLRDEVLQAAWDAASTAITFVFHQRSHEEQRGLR

[3] = HEK-293T viability loss after treatment – luminescence, T-cell screen hits, cytotoxicity control for TCR NF-kB inhibitor project, dose response (AID 489026); assay type: functional, cell-based;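 also: cells exposed to compound about 14 hours before the viability readout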
BJ [4] = assay: BJ-TERT fibroblast viability loss – cell-based, RAS-independent, luminescence, dose response (AID 1933); assay type: functional; details: Homo sapiens
[5] = DRD fibroblast viability loss – cell-based, non-viral oncogenic, luminescence, dose response (AID 1934); assay type: functional; details: Homo sapiens
BJ [6] = assay: cells; assay type: functional, cell-based; details: Homo sapiens
BJ [7] = assay: BJ-TERT-LT-ST fibroblast viability loss – cell-based, RAS-independent, luminescence, dose response (AID 1935); assay type: functional; details: Homo sapiens;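 also: BJ fibroblasts immortalized with TERT plus LT and ST oncogenes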
H9c2 = assay: cells; assay type: functional, cell-based; details: Rattus norvegicus, H9c2, Myocardium;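 also: confirmatory concentration-response retest of ultra-high-throughput screening hits for modulation of myocardial damage; cell death induced by hydrogen peroxide oxidative stress; compound pretreatment for 60 min then peroxide exposure for 2 h; potency is for protecting the cells against peroxide damage rather than for killing them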
[8] = luciferase reporter signal suppression in cells – H4 neuroglioma cells, luminescence, dose response (AID 1990); assay type: functional, cell-based
[9] = Luminescence Cell-Based Dose Response HTS to Identify Inhibitors of 5'UTR Stem-Loop Driven Prion Protein mRNA Translation in H4 Neuroglioblastoma Cells. [Related pubchem assays: 1827 (Project Summary), 1813 (Primary HTS)]; assay type: functional
[10] = alpha-synuclein stem-loop luciferase translation blockers – H4 neuroglioma cells, luminescence, confirmation (AID 1988); assay type: functional, cell-based
[11] = fluconazole-exposed Candida albicans growth modulators – fluorescence, retest, confirmation (AID 2467); assay type: functional, cell-based
[12] = viability of PTEN-deleted HCT116 cells – cell-based, HCT116 PTEN knockout, dose response (AID 1047); assay type: functional;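 also: HCT116 colon tumor cells with PTEN knocked out; cells exposed to compound for 60 hours before readout; potency for loss of cell viability measured by luminescence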
[13] = NIH-3T3 fibroblast cytotoxicity, dose response, cytotoxicity control, cell-based, fluorescence, Alamar Blue, secondary assay (AID 2327); assay type: functional;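 also: NIH-3T3 mouse fibroblasts cultured with fluconazole at 8 µg/mL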
BJ [14] = assay: growth inhibition of engineered Ras-driven BJ cells – cell-based, alamar blue fluorescence, cherrypicked samples, dose response (AID 2631); assay type: functional; details: Homo sapiens;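 also: confirmatory dose-response assay in RAS-dependent BJ fibroblasts engineered with TERT, LT and ST, with cytotoxicity read by fluorescence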
[15] = viability of HCT116 lacking mutant beta-catenin – cell-based, human colon tumor, dose response (AID 1045); assay type: functional;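 also: HCT116 colon tumor cells with beta catenin knocked out; cells exposed to compound for 60 hours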
[16] = target: T3, Heat shock factor protein 1 (Mus musculus, UniProt P38532); assay: enhancement of HSF1-driven luciferase signal – cell-based, NIH3T3, luminescence, dose retest, confirmation (AID 435004); assay type: functional;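 also: stress induced by proteasome inhibitor MG132 added 30 min after compound; luciferase reporter driven by HSF1 response element in NIH3T3 cells; actives raise luminescence as potentiators of the MG132 stress response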
T3 sequence (P38532 whole entry): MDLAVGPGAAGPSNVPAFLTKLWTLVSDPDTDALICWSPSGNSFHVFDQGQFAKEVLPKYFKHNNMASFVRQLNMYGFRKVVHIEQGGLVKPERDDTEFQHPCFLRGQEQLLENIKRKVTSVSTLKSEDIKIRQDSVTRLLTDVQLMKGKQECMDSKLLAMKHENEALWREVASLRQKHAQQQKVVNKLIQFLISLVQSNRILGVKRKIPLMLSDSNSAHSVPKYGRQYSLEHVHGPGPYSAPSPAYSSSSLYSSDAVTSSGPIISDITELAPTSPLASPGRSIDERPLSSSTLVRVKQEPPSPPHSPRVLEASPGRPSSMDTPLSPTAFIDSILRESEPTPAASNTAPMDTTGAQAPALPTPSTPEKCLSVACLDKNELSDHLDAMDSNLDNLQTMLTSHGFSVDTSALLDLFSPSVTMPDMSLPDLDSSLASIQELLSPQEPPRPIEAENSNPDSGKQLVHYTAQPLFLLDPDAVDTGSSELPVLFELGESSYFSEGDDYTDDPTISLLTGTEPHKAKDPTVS

Hexokinase = target: T4, Hexokinase (Trypanosoma brucei, UniProt Q38C41); assay: Confirmation assay for inhibitors of Trypanosoma brucei hexokinase 1-Analogue-first series. [Related pubchem assays (depositor defined):AID1430, AID1632, AID2516, AID2560, AID2579, AID2600, AID449725, AID492951]; assay type: functional
T4 sequence (Q38C41 whole entry): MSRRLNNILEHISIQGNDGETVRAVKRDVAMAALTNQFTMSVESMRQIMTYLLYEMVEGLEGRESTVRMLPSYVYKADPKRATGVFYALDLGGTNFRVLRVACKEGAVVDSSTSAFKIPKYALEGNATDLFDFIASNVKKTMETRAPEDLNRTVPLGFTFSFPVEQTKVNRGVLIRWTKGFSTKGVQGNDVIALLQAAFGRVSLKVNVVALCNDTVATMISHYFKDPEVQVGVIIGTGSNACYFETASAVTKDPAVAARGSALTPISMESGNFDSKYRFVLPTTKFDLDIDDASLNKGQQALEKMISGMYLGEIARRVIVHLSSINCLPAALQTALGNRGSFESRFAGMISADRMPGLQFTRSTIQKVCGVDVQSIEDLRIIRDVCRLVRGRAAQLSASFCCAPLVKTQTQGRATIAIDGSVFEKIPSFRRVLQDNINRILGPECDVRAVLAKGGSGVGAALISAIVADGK

[17] = activation of miR-122 Renilla sensor silencing – cell-based, Huh7 psiCHECK-miR122, Renilla luciferase, cherry-picked, dose response (AID 651956); assay type: functional;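 also: huh7 hepatoma cells stably carrying a psiCHECK-2 miR-122 sensor plasmid; renilla luciferase signal reporting endogenous miR-122 activity after 48 h compound exposure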
[18] = intracellular Trypanosoma cruzi inhibitors in host cells – cell-based, plate reader, cherry-pick samples, set 3, dose response (AID 651818); assay type: functional;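 also: compounds incubated with infected cells for about four days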
[19] = NIH3T3 cell viability loss – ATP luminescence, mouse fibroblasts, counter-screen, dose response (AID 2010); assay type: functional, cell-based;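 also: cells exposed to compound for about 90 hours before reading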
[20] = Trypanosoma cruzi growth suppression in host cells – NIH3T3 host cells, beta-gal luminescence, confirmation (AID 2044); assay type: functional, cell-based;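 also: intracellular parasites grown in NIH/3T3 mouse fibroblasts as host cells; luminescent beta-galactosidase reporter signal from transgenic T. cruzi replicating inside host cells; inhibitors lower the luminescence signal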
[21] = system: Streptococcus sp. 'group A'; assay: Streptococcus pyogenes SK(-)GAS viability under kanamycin – luminescence, BacTiterGlo, confirmation, counter-screen for streptokinase expression inhibitor project, dose response (AID 1900); assay type: functional, organism-based
Streptococcus = assay: GAS UMAA2166 growth inhibition – luminescence, BacTiterGlo, counter-screen for streptokinase expression inhibitor project, dose response (AID 1915); assay type: functional, organism-based;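 also: potency for reduction of bacterial viability or growth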

COCCCn1nc2c3c(ccc2c1O)C(=O)c1ccccc1C3=O
AC50 [1]: 8.86 µM (active)

COc1ccc(C(=O)Nc2ccc3nc(N4CCN(C)CC4)cc(C)c3c2)c(OC)c1
AC50 [2]: 32.9 µM (active)

O=C(Nc1ccc(S(=O)(=O)Nc2ccc(F)cc2)cc1)c1ccc(CN2CCOCC2)cc1
IC50 [3]: > 80 µM (inactive)

CC(Oc1ccc(Cl)cc1Cl)C(=O)Nc1ccncc1 (centres undefined)
EC50 (BJ [4]): > 150 µM (not active)
EC50 [5]: > 150 µM (not active)
EC50 (BJ [6]): 23.9 µM (active)
EC50 (BJ [7]): > 150 µM (not active)
IC50 [3]: > 80 µM (inactive)

CCCC(c1nnnn1C(C)(C)CC)N(CCCO)Cc1cc2cc(C)cc(C)c2nc1O (centres undefined)
IC50 (H9c2): 38.7 µM (inactive)

CCOc1ccccc1N1CC(=O)C(c2nc3ccccc3s2)=C1N
EC50 [8]: 6.86 µM (inconclusive)
EC50 [9]: 10.1 µM (active)
EC50 [10]: 4.59 µM (active)
IC50 (H9c2): > 79 µM (inactive)
IC50 [3]: 44.6 µM (inactive)

CCOC(=O)C(=Cc1cc(=O)c(OC)co1)C(=O)OCC
EC50 [11]: 367 nM (active)
EC50 [12]: 3.55 µM (active)
EC50 (BJ [4]): 8.75 µM (active)
EC50 [13]: 8.28 µM (inconclusive)
EC50 [5]: 4.24 µM (inconclusive)
EC50 (BJ [14]): 0.592 µM (active)
EC50 (BJ [6]): 7.57 µM (inconclusive)
EC50 [15]: 2.93 µM (active)
EC50 (BJ [7]): 4.28 µM (active)
EC50 [16]: 15.2 µM (active)

O=S1(=O)CCC(NC(=S)SCc2ccccc2Br)C1 (centres undefined)
AC50 [1]: 25.6 µM (active)

Clc1cccc(Cl)c1/C=N/Nc1c(Cl)cncc1Cl
EC50 (BJ [4]): 13.7 µM (active)
EC50 [5]: 4.33 µM (active)
EC50 (BJ [6]): > 150 µM (inconclusive)
EC50 (BJ [7]): 76.6 µM (active)
IC50 [3]: > 80 µM (inactive)

CCOC(=O)CSc1nnc(CSc2nc(O)c3ccccc3n2)n1-c1ccccc1
IC50 (H9c2): > 79 µM (inactive)

O=C(Nc1ccccc1)n1sc2ccccc2c1=O
IC50 (Hexokinase): > 25 µM (inactive)

O=c1c2ccc(Br)cc2sn1-c1ccccc1
IC50 (Hexokinase): 3.61 µM (active)

COc1ccccc1C(=O)Nc1cc(Cl)ccc1C(=O)O
IC50 (Hexokinase): > 25 µM (inactive)

O=C(Nc1cc(Cl)ccc1C(=O)O)c1ccncc1
IC50 (Hexokinase): > 25 µM (inactive)

O=c1c2ccccc2on1-c1ccccc1
IC50 (Hexokinase): > 25 µM (inactive)

COc1ccc(NC(=O)CCc2nc(O)c3ccccc3n2)cc1S(=O)(=O)N1CCCCC1
IC50 (H9c2): > 79 µM (inactive)

O=C(O)c1ccc2c(c1)S(=O)(=O)c1cc(N3CCN(c4cnccn4)CC3)ccc1C2=O
IC50 (H9c2): > 79 µM (inactive)

C[C@@H]1CN([C@@H](C)CO)S(=O)(=O)c2ccc(/C=C/c3ccccc3)cc2O[C@@H]1CN(C)C(=O)c1cccnc1
AC50 [17]: 3.93 µM (active)

C[C@@H]1CN([C@H](C)CO)C(=O)c2cccc(NC(=O)c3ccc(-c4nccs4)cc3)c2O[C@@H]1CN(C)Cc1ccc(C(=O)Nc2ccccc2N)cc1
AC50 [18]: 1.69 µM (active)

C[C@@H]1CN([C@H](C)CO)C(=O)c2cc(NC(=O)NC3CCCCC3)ccc2O[C@H]1CN(C)Cc1ccc(Oc2ccccc2)cc1
AC50 [18]: 6.06 µM (active)

COc1ccc(S(=O)(=O)N(C)C[C@H]2Oc3c(NC(=O)Nc4ccc(C(F)(F)F)cc4)cccc3C(=O)N([C@@H](C)CO)C[C@@H]2C)cc1
AC50 [18]: 5.69 µM (active)

Cc1noc(C)c1S(=O)(=O)Nc1ccc2c(c1)CC(=O)N([C@H](C)CO)C[C@@H](C)[C@@H](CN(C)Cc1ccc(Oc3ccccc3)cc1)O2
AC50 [18]: 5.85 µM (active)

CC1(C)N=C(N)N=C(N)N1c1ccc(Oc2ccc(Cl)cc2)c(Cl)c1
EC50 [19]: 14.3 µM (active)
EC50 [20]: 177 nM (active)
EC50 [21]: < 60 nM (active)
EC50 (BJ [14]): > 133 µM (inactive)
EC50 (Streptococcus): 85 nM (active)

CC(CCCN1CCCC1)Nc1ccnc2cc(Cl)ccc12 (centres undefined) [Chloroquine-pyrolidinyl]
AC50 [2]: 35.7 µM (active)
